Where two headings read alike, the source gives them in different places.
Tests used:
Reovirus-1 = test: organism not typed; type: cell-based; settings: Vero, read-out: EC50 Reovirus-1
Sindbis virus = test: microbe, parasite or virus in culture; type: cell-based; settings: Vero, read-out: EC50 Sindbis virus
Vero cells = settings: microscopically detectable alteration of normal cell morphology
Punta toro virus = test: microbe, parasite or virus in culture; type: cell-based; settings: Vero, read-out: EC50 Punta toro virus
Para-influenza-3 virus = test: organism not typed; type: cell-based; settings: Vero, read-out: EC50 Para-influenza-3 virus
in vitro = settings: dog
Influenza B = test: microbe, parasite or virus in culture; type: cell-based; settings: MDCK
[1] = read-out: Antiviral EC50 Influenza B MTS
[2] = read-out: Antiviral EC50 Influenza B Visual CPE score

| SMILES | EC50 (Reovirus-1) [µM] | EC50 (Sindbis virus) [µM] | Minimum cytotoxic concentration (Vero cells) [µM] | EC50 (Punta toro virus) [µM] | EC50 (Para-influenza-3 virus) [µM] | CC50 (in vitro) [µM] | EC50 (Influenza B; [1]) [µM] | EC50 (Influenza B; [2]) [µM] |
| --- | --- | --- | --- | --- | --- | --- | --- | --- |
| Nc1ncnc2c1ncn2C[C@H](O)CO [(S)-DHPA] | > 250 | > 250 | >250 | > 250 | > 250 | – | – | – |
| NC12CC3CC(CC(C3)C1)C2 [Amantadine] | – | – | – | – | – | > 500 | – | – |
| CCC(CC)O[C@@H]1C=C(C(=O)O)C[C@H](N)[C@H]1NC(C)=O [Oseltamivir carboxylate] | – | – | – | – | – | > 100 | 6.2 ± 0.33 | 4 ± 0.11 |
| NC(=O)c1ncn([C@@H]2O[C@H](CO)[C@@H](O)[C@H]2O)n1 [Ribavirin] | > 250 | > 250 | >250 | – | 112 | – | 9.6 ± 0.98 | 9 ± 0.56 |
| CC(N)C12CC3CC(CC(C3)C1)C2 (stereo not shown) [Rimantadine] | – | – | – | – | – | > 500 | – | – |
